Assays:
Type in all cases: in vivo
weeds [1] = assay: Pre-emergence test (greenhouse), activity against weeds; details: in words
In short: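 Compound formulated in acetone with alkylaryl polyglycol ether emulsifier, diluted in water, and watered onto soil about 24 h after sowing, dosed by application rate per unit area. Damage rated after three weeks as % versus untreated control (0% = no action).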

weeds [2] = assay: Post-emergence test (greenhouse), activity against weeds; details: in words
Procedure: (§1) Solvent: 5 parts by weight of acetone
(§2) Emulsifier: 1 part by weight of alkylaryl polyglycol ether
(§3) To produce a suitable preparation of active compound, 1 part by weight of active compound is mixed with the stated amount of solvent, the stated amount of emulsifier is added and the concentrate is diluted with water to the desired concentration.
(§4) Test plants which have a height of 5-15 cm are sprayed with the preparation of the active compound in such a way as to apply the particular amounts of active compound desired per unit area. The concentration of the spray liquor is chosen so that the particular amounts of active compound desired are applied in 2000 l of water/ha.
(§5) After three weeks, the degree of damage to the plants is rated in % damage in comparison to the development of the untreated control.
(§6) 0%=no action (like untreated control)

Maize [3] = assay: Post-emergence test/greenhouse, Maize; details: greenhouse, after three weeks
Procedure: as §1, §2, §3, §4, §5, §6

Digitaria = assay: Post-emergence test/greenhouse, Digitaria; details: greenhouse, after three weeks
Procedure: as §1, §2, §3, §4, §5, §6

Echinochloa = assay: Post-emergence test/greenhouse, Echinochloa; details: greenhouse, after three weeks
Procedure: as §1, §2, §3, §4, §5, §6

Lolium [4] = assay: Post-emergence test/greenhouse, Lolium; details: greenhouse, after three weeks
Procedure: as §1, §2, §3, §4, §5, §6

Sorghum [5] = assay: Post-emergence test/greenhouse, Sorghum; details: greenhouse, after three weeks
Procedure: as §1, §2, §3, §4, §5, §6

Amaranthus = assay: Post-emergence test/greenhouse, Amaranthus; details: greenhouse, after three weeks
Procedure: as §1, §2, §3, §4, §5, §6

Gallium = assay: Post-emergence test/greenhouse, Gallium; details: greenhouse, after three weeks
Procedure: as §1, §2, §3, §4, §5, §6

Matricaria [6] = assay: Post-emergence test/greenhouse, Matricaria; details: greenhouse, after three weeks
Procedure: as §1, §2, §3, §4, §5, §6

Stellaria = assay: Post-emergence test/greenhouse, Stellaria; details: greenhouse, after three weeks
Procedure: as §1, §2, §3, §4, §5, §6

Maize [7] = assay: Pre-emergence test/Greenhouse, Maize; details: in vivo
In short: (§7)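 Seeds sown in normal soil were watered about 24 h later with an aqueous emulsion of compound (solvent plus emulsifier), keeping water volume per area constant so dose is set by application rate per unit area. Damage was rated after three weeks as % versus untreated control (0% = no action).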

Lolium [8] = assay: Pre-emergence test/Greenhouse, Lolium; details: after three weeks
In short: as §7

Poa = assay: Pre-emergence test/Greenhouse, Poa; details: after three weeks
In short: as §7

Sorghum [9] = assay: Pre-emergence test/Greenhouse, Sorghum; details: after three weeks
In short: as §7

Ambrosia = assay: Pre-emergence test/Greenhouse, Ambrosia; details: after three weeks
In short: as §7

Matricaria [10] = assay: Pre-emergence test/Greenhouse, Matricaria; details: after three weeks
In short: as §7

Solanum = assay: Pre-emergence test/Greenhouse, Solanum; details: after three weeks
In short: as §7

Soya beans = assay: Pre-emergence test/Greenhouse, Soya beans; details: in vivo
In short: as §7

COC(=O)c1scc(C)c1S(=O)(=O)NC(=O)n1nc(OC)n(C)c1=O [Example 31]
activity against weeds (weeds [1]): very strong activity against weeds
activity against weeds (weeds [2]): very strong activity against weeds
degree of damage, Maize (Maize [3]; 30 g of ai./ha): 5%
degree of damage, Digitaria (Digitaria; 30 g of ai./ha): 95%
degree of damage, Echinochloa (Echinochloa; 30 g of ai./ha): 95%
degree of damage, Lolium (Lolium [4]; 30 g of ai./ha): 90%
degree of damage, Sorghum (Sorghum [5]; 30 g of ai./ha): 80%
degree of damage, Amaranthus (Amaranthus; 30 g of ai./ha): 100%
degree of damage, Gallium (Gallium; 30 g of ai./ha): 80%
degree of damage, Matricaria (Matricaria [6]; 30 g of ai./ha): 100%
degree of damage, Stellaria (Stellaria; 30 g of ai./ha): 95%
degree of damage to the plants (% damage vs untreated control), Maize (Maize [7]): 10%
degree of damage to the plants (% damage vs untreated control), Lolium (Lolium [8]; 15 g of ai./ha): 95%
degree of damage to the plants (% damage vs untreated control), Poa (Poa; 15 g of ai./ha): 95%
degree of damage to the plants (% damage vs untreated control), Sorghum (Sorghum [9]; 15 g of ai./ha): 80%
degree of damage to the plants (% damage vs untreated control), Ambrosia (Ambrosia; 15 g of ai./ha): 95%
degree of damage to the plants (% damage vs untreated control), Matricaria (Matricaria [10]; 15 g of ai./ha): 95%
degree of damage to the plants (% damage vs untreated control), Solanum (Solanum; 15 g of ai./ha): 95%

CCOc1nn(C(=O)NS(=O)(=O)c2c(C)cccc2C(=O)OC)c(=O)n1C [Example 163]
activity against weeds (weeds [1]): very strong activity against weeds
activity against weeds (weeds [2]): very strong activity against weeds
degree of damage, Maize (Maize [3]; 60 g of ai./ha): 60%
degree of damage, Digitaria (Digitaria; 60 g of ai./ha): 80%
degree of damage, Echinochloa (Echinochloa; 60 g of ai./ha): 70%
degree of damage, Lolium (Lolium [4]; 60 g of ai./ha): 80%
degree of damage, Sorghum (Sorghum [5]; 60 g of ai./ha): 95%
degree of damage, Amaranthus (Amaranthus; 60 g of ai./ha): 100%
degree of damage, Gallium (Gallium; 60 g of ai./ha): 95%
degree of damage, Matricaria (Matricaria [6]; 60 g of ai./ha): 100%
degree of damage, Stellaria (Stellaria; 60 g of ai./ha): 95%
degree of damage to the plants (% damage vs untreated control), Maize (Maize [7]): 20%
degree of damage to the plants (% damage vs untreated control), Soya beans (Soya beans): 0%
degree of damage to the plants (% damage vs untreated control), Lolium (Lolium [8]; 4 g of ai./ha): 80%
degree of damage to the plants (% damage vs untreated control), Poa (Poa; 4 g of ai./ha): 95%
degree of damage to the plants (% damage vs untreated control), Sorghum (Sorghum [9]; 4 g of ai./ha): 60%
degree of damage to the plants (% damage vs untreated control), Ambrosia (Ambrosia; 4 g of ai./ha): 80%
degree of damage to the plants (% damage vs untreated control), Solanum (Solanum; 4 g of ai./ha): 90%

COCc1nn(C(=O)NS(=O)(=O)c2c(C)csc2C(=O)OC)c(=O)n1C1CC1 [Example 28]
activity against weeds (weeds [1]): very strong activity against weeds
activity against weeds (weeds [2]): very strong activity against weeds
degree of damage, Maize (Maize [3]; 60 g of ai./ha): 10%
degree of damage, Digitaria (Digitaria; 60 g of ai./ha): 90%
degree of damage, Echinochloa (Echinochloa; 60 g of ai./ha): 80%
degree of damage, Lolium (Lolium [4]; 60 g of ai./ha): 60%
degree of damage, Sorghum (Sorghum [5]; 60 g of ai./ha): 95%
degree of damage, Amaranthus (Amaranthus; 60 g of ai./ha): 100%
degree of damage, Gallium (Gallium; 60 g of ai./ha): 80%
degree of damage, Matricaria (Matricaria [6]; 60 g of ai./ha): 90%
degree of damage, Stellaria (Stellaria; 60 g of ai./ha): 100%
degree of damage to the plants (% damage vs untreated control), Maize (Maize [7]): 0%
degree of damage to the plants (% damage vs untreated control), Lolium (Lolium [8]; 60 g of ai./ha): 95%
degree of damage to the plants (% damage vs untreated control), Poa (Poa; 60 g of ai./ha): 95%
degree of damage to the plants (% damage vs untreated control), Sorghum (Sorghum [9]; 60 g of ai./ha): 95%
degree of damage to the plants (% damage vs untreated control), Ambrosia (Ambrosia; 60 g of ai./ha): 95%
degree of damage to the plants (% damage vs untreated control), Matricaria (Matricaria [10]; 60 g of ai./ha): 95%
degree of damage to the plants (% damage vs untreated control), Solanum (Solanum; 60 g of ai./ha): 95%

COC(=O)c1cccc(C)c1S(=O)(=O)NC(=O)n1nc(SCCF)n(C2CC2)c1=O [Example 151]
activity against weeds (weeds [1]): very strong activity against weeds
activity against weeds (weeds [2]): very strong activity against weeds
degree of damage, Maize (Maize [3]; 30 g of ai./ha): 60%
degree of damage, Digitaria (Digitaria; 30 g of ai./ha): 90%
degree of damage, Echinochloa (Echinochloa; 30 g of ai./ha): 70%
degree of damage, Lolium (Lolium [4]; 30 g of ai./ha): 60%
degree of damage, Sorghum (Sorghum [5]; 30 g of ai./ha): 90%
degree of damage, Amaranthus (Amaranthus; 30 g of ai./ha): 95%
degree of damage, Gallium (Gallium; 30 g of ai./ha): 90%
degree of damage, Matricaria (Matricaria [6]; 30 g of ai./ha): 90%
degree of damage, Stellaria (Stellaria; 30 g of ai./ha): 90%
degree of damage to the plants (% damage vs untreated control), Maize (Maize [7]): 20%
degree of damage to the plants (% damage vs untreated control), Soya beans (Soya beans): 10%
degree of damage to the plants (% damage vs untreated control), Lolium (Lolium [8]; 15 g of ai./ha): 90%
degree of damage to the plants (% damage vs untreated control), Poa (Poa; 15 g of ai./ha): 90%
degree of damage to the plants (% damage vs untreated control), Sorghum (Sorghum [9]; 15 g of ai./ha): 50%
degree of damage to the plants (% damage vs untreated control), Ambrosia (Ambrosia; 15 g of ai./ha): 80%
degree of damage to the plants (% damage vs untreated control), Matricaria (Matricaria [10]; 15 g of ai./ha): 90%
degree of damage to the plants (% damage vs untreated control), Solanum (Solanum; 15 g of ai./ha): 90%

COCc1nn(C(=O)NS(=O)(=O)c2c(C)csc2C(=O)OC)c(=O)n1C [Example 32]
activity against weeds (weeds [1]): very strong activity against weeds
activity against weeds (weeds [2]): very strong activity against weeds
degree of damage, Maize (Maize [3]; 60 g of ai./ha): 70%
degree of damage, Digitaria (Digitaria; 60 g of ai./ha): 70%
degree of damage, Echinochloa (Echinochloa; 60 g of ai./ha): 100%
degree of damage, Lolium (Lolium [4]; 60 g of ai./ha): 70%
degree of damage, Sorghum (Sorghum [5]; 60 g of ai./ha): 95%
degree of damage, Amaranthus (Amaranthus; 60 g of ai./ha): 95%
degree of damage, Gallium (Gallium; 60 g of ai./ha): 70%
degree of damage, Matricaria (Matricaria [6]; 60 g of ai./ha): 80%
degree of damage, Stellaria (Stellaria; 60 g of ai./ha): 90%
degree of damage to the plants (% damage vs untreated control), Maize (Maize [7]): 20%
degree of damage to the plants (% damage vs untreated control), Soya beans (Soya beans): 20%
degree of damage to the plants (% damage vs untreated control), Lolium (Lolium [8]; 60 g of ai./ha): 95%
degree of damage to the plants (% damage vs untreated control), Poa (Poa; 60 g of ai./ha): 95%
degree of damage to the plants (% damage vs untreated control), Sorghum (Sorghum [9]; 60 g of ai./ha): 60%
degree of damage to the plants (% damage vs untreated control), Ambrosia (Ambrosia; 60 g of ai./ha): 95%
degree of damage to the plants (% damage vs untreated control), Matricaria (Matricaria [10]; 60 g of ai./ha): 95%
degree of damage to the plants (% damage vs untreated control), Solanum (Solanum; 60 g of ai./ha): 95%

CCOc1nn(C(=O)NS(=O)(=O)c2c(C)csc2C(=O)OC)c(=O)n1C1CC1 [Example 30]
activity against weeds (weeds [1]): very strong activity against weeds
activity against weeds (weeds [2]): very strong activity against weeds
degree of damage, Maize (Maize [3]; 60 g of ai./ha): 15%
degree of damage, Digitaria (Digitaria; 60 g of ai./ha): 90%
degree of damage, Echinochloa (Echinochloa; 60 g of ai./ha): 70%
degree of damage, Lolium (Lolium [4]; 60 g of ai./ha): 60%
degree of damage, Sorghum (Sorghum [5]; 60 g of ai./ha): 95%
degree of damage, Amaranthus (Amaranthus; 60 g of ai./ha): 100%
degree of damage, Gallium (Gallium; 60 g of ai./ha): 85%
degree of damage, Matricaria (Matricaria [6]; 60 g of ai./ha): 100%
degree of damage, Stellaria (Stellaria; 60 g of ai./ha): 100%
degree of damage to the plants (% damage vs untreated control), Maize (Maize [7]): 0%
degree of damage to the plants (% damage vs untreated control), Lolium (Lolium [8]; 30 g of ai./ha): 95%
degree of damage to the plants (% damage vs untreated control), Poa (Poa; 30 g of ai./ha): 95%
degree of damage to the plants (% damage vs untreated control), Sorghum (Sorghum [9]; 30 g of ai./ha): 80%
degree of damage to the plants (% damage vs untreated control), Ambrosia (Ambrosia; 30 g of ai./ha): 95%
degree of damage to the plants (% damage vs untreated control), Matricaria (Matricaria [10]; 30 g of ai./ha): 95%
degree of damage to the plants (% damage vs untreated control), Solanum (Solanum; 30 g of ai./ha): 95%

Source: patent US6441195B1, “Substituted sulphonylamino(thio) carbonyl compounds” (Bayer Aktiengesellschaft, priority 1995, dated 2002)
